Test results: patent publication US20240423972A1, “CHEMOTHERAPEUTIC BIOADHESIVE PARTICLES WITH IMMUNOSTIMULATORY MOLECULES FOR CANCER TREATMENT” (priority 2021, published 2024)

What was measured:
PDVC57 tumors [1] = experiment: In vivo assessment of CPT NP efficacy; conditions: single dose of 0.25 mg of CPT by intratumoral injection
Method: (§1) All animal procedures were conducted in accordance with Yale Institutional Animal Care and Use Committee guidelines. Mice were housed in the Yale Animal Resource Center and afforded free access to food and water. Wild-type C57BL/6J mice were obtained from The Jackson Laboratory. To prepare the animals for tumor transplantation, the dorsal right flank was shaved using electric clippers. PDVC57 cells were harvested, washed, and resuspended in 1×PBS on ice at a concentration of 5.0×10^7 cells per mL. Mice were then anesthetized in an induction chamber with […] in propylene glycol and the dorsal right flank injected intradermally/subcutaneously with 5.0×10^6 cells in 100 μl using a 27-gauge syringe, forming a small bleb at the site of injection.
PDVC57 tumors were induced as described above. When tumors attained a diameter of approximately 5 mm, they were injected with either blank BNPs (1.99 mg/50 μL of PBS), IL-CPT (0.25 mg of CPT/50 μL), NNP-CPT (0.25 mg of CPT/50 μL of PBS), or BNP-CPT (0.25 mg of CPT/50 μL of PBS) using a 27-gauge needle, which was positioned in the center of the tumor. The entire treatment volume was administered intratumorally over 15 s. The needle was then held in this position for 10 s and withdrawn slowly in order to prevent leakage of drug from the injection site.

PDVC57 tumors [2] = experiment: Intratumoral CPT retention (CPT recovered from tumors); format: in vivo, C57BL/6J mice; conditions: 240 h (10 days) after intratumoral injection, 0.25 mg CPT
Method: as §1
When tumors reached a diameter of about 5 mm, they were treated with either free CPT (0.25 mg of CPT/50 μL of intralipid), NNP-CPT (0.25 mg of CPT/50 μL of PBS), or BNP-CPT (0.25 mg of CPT/50 μL of PBS). Following injection, tumors were harvested and lyophilized at 0, 48, and 240 h. […] The homogenate was centrifuged at 10,000×g for 5 min to pellet residual tumor and debris, the supernatant removed, and CPT quantified using its intrinsic fluorescence as described above.

PDVC57 cells = experiment: Control cytotoxicity assay: solutions not aspirated before addition of cells; format: cell-based, murine
Method: After 48 hours, cell viability was assessed using Cell-Titer Glo. (8D) PDVC7 cells were harvested and seeded on a 96-well plate (5000 cells/well). […] FIG. 8B is a control for assay (8A) in which there is no poly-l-lysine attached to the plate.
A simulated, protein-rich tumor matrix was created by coating a 96 wellplate with 0.01% poly-l-lysine in 1×PBS. […] […] After 48 hours, cell viability was assessed using Cell-Titer Glo. PDVC7 cells were harvested and seeded on a 96-well plate (5000 cells/well). […] After 48 hours, cell viability was assessed using Cell-Titer Glo. A control for assay in which the poly-l-lysine coated plates are incubated with blank (unloaded) NP, free CPT, NNP-CPT or BNP-CPT, but these solutions are not aspirated before the addition of PDVC57 cells.

Compound: CC[C@@]1(O)C(=O)OCc2c1cc1n(c2=O)Cc2cc3ccccc3nc2-1 [free CPT, Camptothecin]
- Systemic toxicity in pilot studies (PDVC57 tumors [1]): without clinical evidence of systemic toxicity
- percentage of the injected CPT recovered from tumors (PDVC57 tumors [2]): undetectable
- Killing of PDVC57 (viability) (PDVC57 cells): comparable killing
